Structures can show the parent of a compound that is named as a salt.

The experiment deals with KCN-induced lethality. Kind of experiment: KCN Test in Rats (protection from KCN induced lethality). Format: in vivo. Particulars: Rattus norvegicus, sc; male Wistar rats, subcutaneous, one hour before KCN 5 mg/kg i.v.; survival after 2 minutes; read-out: ED50-values (protecting 50% of the tested animals against KCN-induced lethality).
The term ED50 denotes the dose at which the effect has come halfway, by size or by number of responders. As to `CN(c1nc2ccccc2s1)C1CCN(CC=Cc2ccccc2)CC1` [Compound 133], the ED50 is 5 mg/kg.
As for `CN(c1nc2ccccc2s1)C1CCN(CCCCOc2cccc(Cl)c2)CC1.O=C(O)/C=C\C(=O)O` [Compound 1, N-[1-[4-(3-chlorophenoxy)butyl]-4-piperidinyl]-N-methyl-2-benzothiazolamine (Z)-2-butenedioate (1:1)], the ED50 amounted to 5 mg/kg.
The same measure for `CN(c1nc2ccccc2s1)C1CCN(CC(O)C2CCc3ccccc3O2)CC1` (stereo not drawn) [Compound 438, (A^-)-4-[(2-benzothiazolyl)methylamino]-α-(3,4-dihydro-2H-1-benzopyran-2-yl)-1-piperidineethanol]: 10 mg/kg.
Consider `CN(c1nc2ccccc2s1)C1CCN(C[C@H](O)COc2ccc(F)cc2)CC1` [Compound 411, (-)-(S)-4-[(2-benzothiazolyl)methylamino]-α-[(4-fluorophenoxy)methyl]-1-piperidineethanol dihydrochloride], for which the ED50 worked out at 5 mg/kg.
The same measure for `CN(c1nc2ccccc2s1)C1CCN(CCCCCOc2cccc(Cl)c2)CC1` [Compound 191]: 2.5 mg/kg; for `CCN(c1nc2ccccc2s1)C1CCN(CC(O)COc2ccc(Cl)cc2)CC1` (stereo not shown) [Compound 357]: 0.63 mg/kg; for `CN(c1nc2ccccc2s1)C1CCN(CCCCOc2ccccc2)CC1` [Compound 10]: 5 mg/kg.
The same measure for `CCCCN1CCC(N(C)c2nc3ccccc3o2)CC1` [Compound 103]: 5 mg/kg; for `CN(c1nc2ccccc2s1)C1CCN(CC(O)CSc2ccccc2)CC1` (stereo not drawn) [Compound 440, 4-[(2-benzothiazolyl)methylamino]-α-[(phenylthio)methyl]-1-piperidineethanol (Z)-2-butenedioate(1:1)]: 10 mg/kg; for `CN(c1nc2ccccc2o1)C1CCN(CC(O)COc2ccc(Cl)cc2)CC1` (stereo not shown) [Compound 324]: 2.5 mg/kg.
The value for `CN(c1nc2ccccc2o1)C1CCN(CC(O)COc2ccccc2)CC1` (stereo not shown) [Compound 322] was 5 mg/kg.
Turning to `CCN(c1nc2ccccc2s1)C1CCN(CCCOc2ccc(C)cc2)CC1` [Compound 123, N-ethyl-N-[1-[3-(4-methylphenoxy)propyl]-4-piperidinyl]-2-benzothiazolamine], the ED50 is 5 mg/kg.
As for `CN(c1nc2ccccc2s1)C1CCN(CCCOc2ccc3ccccc3c2)CC1` [Compound 148], the ED50 worked out at 5 mg/kg.
The value for `CN(c1nc2ccccc2s1)C1CCN(CCCCOc2ccc(Br)cc2)CC1` [Compound 42] was 2.5 mg/kg; that for `CN(c1nc2ccccc2o1)C1CCN(CCc2ccccn2)CC1` [Compound 452, N-methyl-N-[1-[2-(2-pyridinyl)ethyl]-4-piperidinyl]-2-benzoxazolamine] was 5 mg/kg.
Consider `CN(c1nc2ccccc2o1)C1CCN(CC(O)CSc2ccccc2)CC1` (stereo not drawn) [Compound 446, 4-[(2-benzoxazolyl)methylamino]-α-[(phenylthio)methyl]-1-piperidineethanol (E)-2-butenedioate(2:1)], for which the 50% effective dose (ED50) worked out at 10 mg/kg.
Consider `CN(c1nc2ccccc2s1)C1CCN(CCCCOc2ccc(F)cc2)C1` (stereo not shown) [Compound 118, N-[1-[4-(4-fluorophenoxy)butyl]-3-pyrrolidinyl]-N-methyl-2-benzothiazolamine dihydrochloride.monohydrate], for which the median effective dose (ED50) is 5 mg/kg.
`CN(c1nc2ccccc2s1)C1CCN(CCCOc2cccc(F)c2)C1.O=C(O)C(=O)O` (stereo not shown) [Compound 121, N-[1-[3-(3-fluorophenoxy)propyl]-3-pyrrolidinyl]-N-methyl-2-benzothiazolamine ethanedioate(1:1)]: the ED50 is 2.5 mg/kg.
The same measure for `CN(c1nc2ccccc2s1)C1CCN(CC(O)C2COc3ccccc3O2)CC1` (single isomer, unassigned) [Compound 415, (A)-4-[(2-benzothiazolyl)methylamino]-α-(2,3-dihydro-1,4-benzodioxin-2-yl)-1-piperidineethanol]: 10 mg/kg; for `Cc1cccc(OCCCN2CCC(N(C)c3nc4ccccc4o3)CC2)c1` [Compound 48]: 1.25 mg/kg; for `CN(c1nc2ccccc2s1)C1CCN(CC(O)COc2ccc(F)cc2)C1` (stereo not drawn) [Compound 405, 3-[(2-benzothiazolyl)methylamino]-α-[(4-fluorophenoxy)methyl]-1-pyrrolidineethanol 4-methylbenzenesulfonate(1:2)]: 10 mg/kg.
The value for `CN(c1nc2ccccc2s1)C1CCN(CCCOc2ccccc2F)CC1` [Compound 18] was 5 mg/kg; that for `CN(c1nc2ccccc2s1)C1CCN(CCCOc2cccc(F)c2)CC1` [Compound 9] was 2.5 mg/kg.
For the compound `CN(c1nc2ccccc2s1)C1CCN(CC(O)CSc2ccc(Cl)cc2)CC1` (stereo not drawn) [Compound 443, 4-[(2-benzothiazolyl)methylamino]-α-[[(4-chlorophenyl)thio]methyl]-1-piperidineethanol (Z)-2-butenedioate(1:1)], the 50% effective dose (ED50) was 10 mg/kg.
With `CN(c1nc2ccccc2o1)C1CCN(CC(O)COc2ccc(F)cc2)CC1` (stereo not shown) [Compound 323], the median effective dose (ED50) was found to be 1.25 mg/kg.
Turning to `CN(c1nc2ccccc2o1)C1CCN(CCCOc2cccc(F)c2)CC1` [Compound 195], the ED50 came to 1.25 mg/kg.
The same measure for `CN(c1nc2ccccc2s1)C1CCN(CCCCOc2ccc(F)cc2)CC1` [Compound 11]: 1.25 mg/kg; for `C(=Cc1ccccc1)CN1CCC(Nc2nc3ccccc3o2)CC1` [Compound 107]: 2.5 mg/kg.
With `CN(c1nc2ccccc2s1)C1CCN(CCCCCOc2ccc(F)cc2)CC1` [Compound 32], the 50% effective dose (ED50) amounted to 5 mg/kg.
As for `CN(c1nc2ccccc2o1)C1CCN(C2CCCCC2)CC1` [Compound 309], the ED50 was 5 mg/kg.
The same measure for `CN(c1nc2ccccc2s1)C1CCN(CC(O)CSc2ccc(F)cc2)CC1` (stereo not drawn) [Compound 442, 4-[(2-benzothiazolyl)methylamino]-α-[[(4-fluorophenyl)thio]methyl]-1-piperdineethanol (Z)-2-butenedioate(1:1)]: 2.5 mg/kg.
With `CN(c1nc2ccccc2s1)C1CCN(CCCCCc2ccccc2)CC1` [Compound 108], the ED50 worked out at 5 mg/kg.
Consider `CN(c1nc2ccccc2o1)C1CCN(CC(O)C2COc3ccccc3O2)CC1` (single isomer, unassigned) [Compound 413, (A)-4-[(2-benzoxazolyl)methylamino]-α-(2,3-dihydro-1,4-benzodioxin-2-yl)-1-piperidineethanol], for which the ED50 was 5 mg/kg.
Turning to `CN(c1nc2ccccc2s1)C1CCN(CCCOc2ccc([N+](=O)[O-])cc2)CC1` [Compound 151], the ED50 amounted to 5 mg/kg.
Regarding `CN(c1nc2ccccc2o1)C1CCN(CCCCOc2ccc(Cl)cc2)CC1` [Compound 15], the median effective dose (ED50) came to 0.63 mg/kg.
For the compound `COc1ccccc1OCCCCCN1CCC(N(C)c2nc3ccccc3s2)CC1` [Compound 50], the ED50 stood at 2.5 mg/kg.
The same measure for `COc1ccc(OCCCN2CCC(N(C)c3nc4ccccc4s3)CC2)cc1` [Compound 24]: 5 mg/kg; for `CN(c1nc2ccccc2s1)C1CCN(CC(O)COc2ccc(F)cc2)CC1` (stereo not drawn) [Compound 320, 4-[(2-benzothiazolyl)methylamino]-α-[(4-fluorophenoxy)methyl]-1-piperidineethanol monohydrochloride]: 1.8 mg/kg; for `C[C@@H]1CN(CCCCOc2ccccc2)CC[C@@H]1N(C)c1nc2ccccc2s1` (relative stereo) [Compound 75]: 10 mg/kg.
The same measure for `CN(c1nc2ccccc2s1)C1CCN(CCCOc2ccc(F)cc2)CC1` [Compound 146]: 5 mg/kg; for `Cc1cccc(OCCCN2CCC(N(C)c3nc4ccccc4s3)C2)c1.O=C(O)C(=O)O` (stereo not shown) [Compound 120, N-methyl-N-[1-[3-(3-methylphenoxy)propyl]-3-pyrrolidinyl]-2-benzothiazolamine ethanedioate(1:1)]: 2.5 mg/kg; for `COc1ccc(OCCCCN2CCC(N(C)c3nc4ccccc4s3)CC2)cc1` [Compound 31]: 5 mg/kg.
The value for `CN(c1nc2ccccc2s1)C1CCN(C[C@@H](O)COc2ccc(F)cc2)CC1` [Compound 410, (+)-(R)-4-[(2-benzothiazolyl)methylamino]-α-[(4-fluorophenoxy)methyl]-1-piperidineethanol dihydrochloride] was 5 mg/kg.

The record behind these values is patent publication US4861785A (priority 1985, dated 1989).
